“Also recorded” adds a separate entry of the source.
Tests used:
C. albicans = test: Universal double chimeric peptide vaccines, protection against candidiasis in mouse model; assay type: in vivo, Candida albicans; conditions: Table 11; double peptide vaccine formula feasible for human use
Text: Each chimeric peptide conjugate comprises two peptide epitopes.

C. auris AR-0386 = test: Passive transfer of mAbs or two mAbs in combination in A/J mouse model of invasive C. auris infection; assay type: in vivo, Candida auris
Procedure: A. Complement protein C5-defecient A/J mice were treated with one of the five mAb or with DPBS as a vehicle control. The following day, mice were challenged with 1×10^8 C. auris cells/100 ul DPBS dose per mouse. […] B. Fungal burdens in the kidneys (top), heard (center), and brain (bottom).
Identified protective mAbs were obtained by use of standard hybridoma technique and purified by use of protein A/G. A/J mice were given an i.p. dose of either single mAb or two mAbs in combination 24 hours before hematogensous challenge with a lethal dose (2×108) of C. auris AR-0386 live cells. Mice received either 9G2F5 alone or 6H1G8 alone or 9F2G5 and 3H7E3 in combination had 40% survival rate respectively, with prolonged survival as compared to control animals that received DPBS buffer control.
Evaluation and validation of a panel of peptide-specific monoclonal antibodies (mAbs) as a passive immunization strategy protect against invasive C. auris infection in established A/J mouse model of human disease.
The monoclonal antibodies used in this experiment were: • 6H1G8 (IgG2b), α-Hwp1 (Hyphal wall protein) • 3E2G2 (IgG2b), α-Fba (Fructose bisphosphate aldolase) • 10E7E2 (IgG1), α-GPV-P3 (General peptide vaccine 3 from Phosphoglycerate kinase) • 9F2G5 (IgG2a), α-Pgk1 (Phosphoglycerate kinase) • 3H7E3 (IgG1), α-Met6 (Methyltetrahydropteroyltriglutamate)

C. albicans 3153A = test: Passive transfer of mAbs or mAb cocktails i.p. before lethal i.v. challenge, mouse model of human disseminated candidiasis; assay type: in vivo, Candida albicans; conditions: Table 14; for Protection of adsorbed mAb: mAb removed by absorption with Candida cells before transfer; for Protection / Protection (grade word): single mAb, C. albicans
Procedure: Passive transfer of MAbs by intraperitoneal (i.p.) route. The preventive effect of peptide-specific mAbs listed in Table 3 and Table 4 in naïve mice was examined by passive transfer experiments. […] For testing, mice received 0.5 ml of each mAb or 1 ml of two mAbs in combination (0.5 ml of each) intraperitoneally. […] The negative control materials tested in mice were single mAb or DPBS. Control mice received 0.5 ml of the DPBS diluents or single mAb treatment. For each condition, 6- to 8-week-old female BALB/c mice (NCI) were given 0.5 ml of test mAb, or 1 ml two mAb cocktails or control materials intraperitoneally, followed 4 h later by 0.1 ml intravenously of defined lethal dose of yeast cells per milliliter of DPBS. Mice were divided into groups with five mice each and three independent experiments were carried out. In some experiments, mice were given the same dose of mAbs or control materials on every other day post-challenge for two weeks, as compared to the protective efficacy of mAb in combinations. All mice were sacrificed on day 50. For animal groups that were challenged non-albicans candida species, determined optimal challenge doses were applied for each candida strain.
The hybridoma clones that produce the universal peptide specific mAbs listed above were generated from mice vaccinated with peptide-pulsed dendritic cell (DC) preparation as described previously (6). The isotype of mAb was determined with a Mouse Monoclonal Antibody Isotyping Kit (Pierce, USA). […] In detail, BALB/c mice were given an i.p dose of each mAb four hours before hematogenous challenged with a lethal dose of C. albicans3153A cells. […] Importantly, passive protection was prevented by removal of the mAbs by absorption with Candida cells before transfer, which provided strong additional evidence for the protection being due to the mAb.
The three cell wall proteins were selected because of expression during human candidiasis and cell wall association, and included fructose-bisphosphate aldolase (Fba); methyltetrahydropteroyltriglutamate-homocysteine methyltransferase (Met6); hyphal wall protein-1 (Hwp1). The hybridoma clones listed at Table 5, which produce the peptide specific mAbs, were generated from mice vaccinated with peptide-pulsed dendritic cell (DC) preparation as described previously (6). The isotype of mAb was determined with a Mouse Monoclonal Antibody Isotyping Kit (Pierce, USA). […] Importantly, passive protection was prevented by removal of the mAbs by absorption with Candida cells before transfer, which provided strong additional evidence for the protection being due to the mAb).
The preventive effect of each universal peptide-specific mAb was examined by passive transfer experiments. […] For testing, 5 mice of each tested group received 0.5 ml of each mAb intraperitoneally. The negative control materials tested in mice were mAbs absorbed with C. albicans yeast cells (3153A) and DPBS. Control mice received 0.5 ml of the DPBS diluents or adsorbed mAb solution. For each condition, 6- to 8-week-old female BALB/c mice (NCI) were given 0.5 ml of test mAb, or control materials intraperitoneally, followed 4 h later by 0.1 ml intravenously of a suspension containing lethal dose of Candida cells per milliliter of DPBS. Mice were divided into groups with five mice each and three independent experiments were carried out. We have developed neutropenic murine models of disseminated infection by C. glabrata, C. tropicalis and C. parapsilosis. To induce neutropenia, naïve mice received a 200 mg/kg dose of cyclophosphamide (CY) by i.p. on day −3. Prolonged neutropenia were maintained for 30-50 days by giving each animal a 150 mg/kg dose of CY by i.p. every 10 days after infection.

Row | Molecule | Protection against Candidiasis in mouse model (C. albicans) | Protection against Candidiasis in mouse model (grade word) (C. albicans) | further results
1 | RGD-PADRE-GPV-M2-KK-GPV-P3: double peptide vaccine 11; amidation (C-terminus) and acetylation (N-terminus) (Ac-RGDAKFVAAWTLKAAACTTTIGSFPQTKDIRKKCIVIIGGGDTATVAKK-NH2; cysteine pairing not given here) | 80-100% | High | 
2 | TT947-967-GPSL-GPV-M1-GPSL-GPV-P1: double peptide vaccine 3; amidation (C-terminus) and acetylation (N-terminus) (Ac-FNNFTVSFWLRVPKVSASHLEGPSLCFWVNPDCGLKTRGPSLCAILGGSKVSDKI-NH2; cysteine pairing not given here) | 40-60% | medium | 
3 | TT830-844-KK-GPV-P3-KK-GPV-M2: double peptide vaccine 6; amidation (C-terminus) and acetylation (N-terminus) (Ac-QYIKANSKFIGITEKKCIVIIGGGDTATVAKKKKCTTTIGSFPQTKDIR-NH2; cysteine pairing not given here) | 40-60% | medium | 
4 | TT947-967-KK-GPV-P3-KK-GPV-M1: double peptide vaccine 7; amidation (C-terminus) and acetylation (N-terminus) (Ac-FNNFTVSFWLRVPKVSASHLEKKCIVIIGGGDTATVAKKKKCFWVNPDCGLKTR-NH2; cysteine pairing not given here) | 70-90% | High | 
5 | RGD-TT830-844-KK-GPV-P3-KK-GPV-M1: double peptide vaccine 8; amidation (C-terminus) and acetylation (N-terminus) (Ac-RGDQYIKANSKFIGITEKKCIVIIGGGDTATVAKKKKCFWVNPDCGLKTR-NH2; cysteine pairing not given here) | 80-100% | High | 
6 | PADRE-GPV-M2-KK-GPV-P1: double peptide vaccine 10; amidation (C-terminus) and acetylation (N-terminus) (Ac-AKFVAAWTLKAAACTTTIGSFPQTKDIRKKCAILGGSKVSDKI-NH2; cysteine pairing not given here) | 20-40% | Low | 
7 | RGD-GPV-P3-KK-GPV-M2: double peptide vaccine 4; amidation (C-terminus) and acetylation (N-terminus) (Ac-RGDCIVIIGGGDTATVAKKKKCTTTIGSFPQTKDIR-NH2; cysteine pairing not given here) | 70-90% | High | 
8 | RGD-TT947-967-KK-GPV-P3-KK-GPV-M1: double peptide vaccine 9; amidation (C-terminus) and acetylation (N-terminus) (Ac-RGDFNNFTVSFWLRVPKVSASHLEKKCIVIIGGGDTATVAKKKKCFWVNPDCGLKTR-NH2; cysteine pairing not given here) | 20-40% | Low | 
9 | PADRE-GPV-M1-GPSL-GPV-P1: double peptide vaccine 1; amidation (C-terminus) and acetylation (N-terminus) (Ac-AKFVAAWTLKAAACFWVNPDCGLKTRGPSLCAILGGSKVSDKI-NH2; cysteine pairing not given here) | 60-90% | High | 
10 | TT830-844-GPSL-GPV-M1-GPSL-GPV-P1: double peptide vaccine 2; amidation (C-terminus) and acetylation (N-terminus) (Ac-QYIKANSKFIGITEGPSLCFWVNPDCGLKTRGPSLCAILGGSKVSDKI-NH2; cysteine pairing not given here) | 40-60% | medium | 
11 | 6H1G8: IgG2b mAb of hybridoma 6H1G8, specific for Hwp1 peptide (antibody) heavy: EVQLQQSGPELVKPGASVKISCKASGYSITGYYMHWVKQSHVKSLEWIGRINPYTGATSYTQNFKDKASLTVDKSSSTAYMELLSLKSEDSAVYYCAKGGGRSSYWYFDVWGAGTAVTVSSAKTTPPSVYPLAPGCGDTTGSSVTLGCLVKGYFPESVTVTWNSGSLSSSVHTFPALLQSGLYTMSSSVTVPSSTWPSQTVTCSVAHPASSTTVDKKLEPSGPISTINPCPPCKECHKCPAPNLEGGPSVFIFPPNIKDVLMISLTPKVTCVVVDVSEDDPDVQISWFVNNVEVHTAQTQTHREDYNSTIRVVSTLPIQHQDWMSGKEFKCKVNNKDLPSPIERTISKIKGLVRAPQVYILPPPAEQLSRKDVSLTCLVVGFNPGDISVEWTSNGHTEENYKDTAPVLDSDGSYFIYSKLNMKTSKWEKTDSFSCNVRHEGLKNYYLKKTISRSPGK light: DIQMTQTTSSLSASLGDRVTISCSASQAISNYLNWYQQKPDGTIKLLIYYTSSLHSGVPSRFSGSGSGTDYSLTISNLEPEDIATYYCQQYSKLPWTFGGGTKLEIKRADAAPTVSIFPPSSEQLTSGGASVVCFLNNFYPKDINVKWKIDGSERQNGVLNSWTDQDSKDSTYSMSSTLTLTKDEYERHNSYTCEATHKTSTSPIVKSFNRNEC |  |  | fungal burdens in targeted organs (C. auris AR-0386; A/J mouse model, in words): lowest fungal burdens in all organs; also recorded: able to almost clear fungal burden; protection against C. auris invasive infection (C. auris AR-0386; A/J mouse model, in words): protect against C. auris invasive infection; also recorded: best protection; survival (C. auris AR-0386; FIG. 15A, A/J mice, 1×10^8 C. auris cells, experiment terminated 40 days post challenge): 50%; fungal burden in the kidneys (C. auris AR-0386; FIG. 15B, one treated mouse): Non-detectible levels of fungal burden; fungal burden in the heart and brain (C. auris AR-0386; FIG. 15B, several mice): non-detectible levels of fungal burden; survival rate (C. auris AR-0386; FIG. 16, A/J mice, mAb(s) i.p. 24 hours before lethal dose (2×108) of C. auris AR-0386): 40%; Protection of adsorbed mAb (C. albicans 3153A): None; Protection (C. albicans 3153A): (70-80%); Protection (grade word) (C. albicans 3153A): High
12 | 2D5F7: IgG2b mAb of hybridoma 2D5F7, specific for Fba peptide; VH SEQ ID NO: 68, VL SEQ ID NO: 70 (antibody, V domains shown) VH: MERHWIFLFLLSVTAGVHSQVQLQQSAAELARPGASVKMSCKASGYTFSSYTMHWVKQRPGQGLEWIGYINPSSGYTDYNQKFKDKTTLTADKSSSTAYMQLSSLTSEDSAVYYCARLYDNYDYYAMDYWGQGTSVTVSS VL: MDSQAQVLILLLLWVSGTCGDIVMSQSPSSLAVSAGEKVTMSCKSSQSLLNSRIRKNYLAWYQQKPGQSPKLLIYWASTRESGVPDRFTGSGSGTDFTLTISSVQADDLAVYYCKQSYNLLTFGAGTKLELK |  |  | Protection of adsorbed mAb (C. albicans 3153A): None; Protection (C. albicans 3153A): (90-100%); Protection (grade word) (C. albicans 3153A): High

Reference: patent US11707511B2, “Vaccine compositions and methods of using the same” (The Board of Supervisors of Louisiana State University and …, priority 2017, dated 2023)
